According to PMC2919388, “A Screening Pipeline for Antiparasitic Agents Targeting Cryptosporidium Inosine Monophosphate Dehydrogenase” (PLoS Neglected Tropical Diseases, 2010):
Where two headings read alike, the source gives them in different places.

Columns and labels:
C. parvum [1] = assay: High-content imaging C. parvum growth assay (FITC-VVL); type: cell-based, Cryptosporidium parvum; conditions: for EC50: Cryptosporidium parvum, HCT-8, 48 h, growth in HCT-8 cells, 48 hours
Experimental: The human ileocecal adenocarcinoma epithelial cell line, HCT-8, was used to support C. parvum infection in vitro. HCT-8 cells were maintained in RPMI-1640 (Hyclone) supplemented with 10% FBS, 1 mM sodium pyruvate, 50 U/m penicillin, 50 µg/ml streptomycin, and amphotericin B. Cryptosporidium parvum oocysts were a kind gift from either Dr. Mead (Emory University) or Dr. Kissinger (University of Georgia). HCT-8 cells (2×10^5) were seeded into black, optical quality, thin bottom, 96-well plates (DB Falcon) to achieve a 70% confluent monolayer on the day of infection. To facilitate oocyst excystation, a procedure described by Gut et al., was followed. Briefly, oocysts were washed twice with 1 ml of PBS (pH 7.2), incubated for 10 minutes at 37°C in 1 ml 10 mM of HCl and then incubated for a further 10 minutes in 0.2 ml of 200 µM sodium taurocholate at 15°C [40]. This oocyst suspension was diluted directly with DMEM (Hyclone) supplemented with 2% FBS, 50 U/ml penicillin, 50 µg/ml streptomycin, amphotericin B and 0.2 mM L-glutamine (infection medium) to inoculate host cell monolayers at 5×10^5 oocysts per well. Host cell monolayers were incubated for 3 hours at 37°C prior to removal of unexcysted oocysts by aspiration and PBS wash. Infection medium was then added to the monolayers and infection was allowed to progress for 48 hours.
The VVL IFA was performed in a 96-well format. Following 48 hours of culture C. parvum infected HCT-8 cells were washed with PBS and fixed with 0.2 ml/well of 3% paraformaldehyde/PBS, permeabilized with 0.25% Triton-X-100/PBS and blocked with 4% BSA/PBS. 0.1 ml of fluorescein (FITC)-conjugated VVL (Vector Labs 0.5 µg/ml) in 1% BSA/PBS was applied to wells and incubated for 45 minutes. The plates were washed twice with 200 µl/well of PBS. In the first wash DAPI was included at 0.1 µg/ml. Finally 200 µl/well of PBS was added to the plates prior to storage at 4°C protected from light.
Confocal images were acquired using a BD Biosciences Bioimager P435. The instrument was programmed to automatically change position and focus, capture montage images of 9–16, 40× fields per well, and then compress and save the image files. Object finding algorithms were developed for the recognition of FITC-VVL labelled C. parvum parasites and DAPI labelled host cell nuclei using Attovision Software (BD Biosciences). Briefly, to identify FITC-VVL labelled parasites, the object finding algorithm included, a flat field correction, a polygon shape setting, a 3×3 rolling ball filter, manual pixel intensity thresholding (100 min – 4095 max), and minimum and maximum object size cut-offs of 5 pixels and 350 pixels respectively. The algorithm optimised for finding DAPI labelled host cell nuclei also included flat field correction and polygon shape setting, but applied a 25×25 rolling ball filter which is more suitable for larger objects, an automated pixel intensity threshold, minimum and maximum object size cut-offs of 200 pixels and 4000 pixels respectively, and a watershed step with an erosion factor of 8 to aid in the separation of adjacent densely packed nuclei. Note that the intensity and area size cut off exclude detection of the much smaller parasite nuclei (the human genome is three hundred times larger than the C. parvum genome).
The object finding analysis steps described above recorded the number and area of objects per montage image. The output files along with a plate map file were then passed to an automated analysis pipeline (Pipeline Pilot Software, Accelrys) to calculate the mean number of parasites, the ratio of parasite number to host cell nuclei number, the mean area of parasites and host cell nuclei by well, and the percentage growth by treatment as compared to the no drug control. These analyses were exported in graphical format for each plate and the numerical values tabulated in html format. […]

T. gondii-CpIMPDH = assay: Fluorescent T. gondii growth assay, CpIMPDH reporter strain; type: cell-based, Toxoplasma gondii; conditions: for Selectivity = EC50(T. gondii-wild-type)/EC50(T. gondii-CpIMPDH): Figure 5 Sel; for EC50: Toxoplasma gondii, read-out: T. gondii model EC50 CpIMPDH, T. gondii-CpIMPDH, absence of xanthine
From the text: (§1) Wild-type T. gondii and T. gondii-ΔHXGPRT parasites were transfected with plasmid ptubYFPYFsagCAT [37] which drives constitutive cytoplasmic expression of two copies of the yellow fluorescent protein. Similarly, plasmid pCTR2T [38] was transfected into T. gondii-CpIMPDH resulting in constitutive cytoplasmic expression of a tandem of the tomato variant of the red fluorescent protein [39]. Fluorescent parasites were selected and cloned by cell sorting using a MoFlo Legacy instrument (Beckman Coulter, Inc). Growth of fluorescent clones was monitored in 96 well plates as previously described. Briefly, fluorescence was read daily with a SpectraMax M22/M2e (Molecular Devices) plate reader (Ex 485, Em 530) for 6–7 days. For each of the three fluorescent T. gondii clones percent growth inhibition was calculated on a day within the exponential phase of growth for the purpose of determining an IC50 for each compound.
To facilitate screening of antiparasitic activity, we constructed a T. gondii reporter parasite that mirrors the Cryptosporidium purine metabolism. Figure 1 summarizes the main differences between the two parasites in this pathway. We started with a T. gondii knockout mutant that, like C. parvum, lacks the ability to salvage xanthine and guanine via HXGPRT (T. gondii-ΔHXGPRT [41]) and introduced the CpIMPDH gene under the control of a T. gondii promoter. Next the native T. gondii IMPDH gene was disrupted by replacing the entire coding sequence with a chloramphenicol acetyl transferase cassette using a new cosmid-based gene targeting approach. […] This manipulation created strain T. gondii-CpIMPDH-ΔHXGPRT-ΔTgIMPDH. Lastly, we introduced a fluorescent protein cassette and isolated stable transgenic parasites by cell sorting. The resulting strain is referred to as T. gondii-CpIMPDH. […] We similarly engineered fluorescent versions of wild-type T. gondii and T. gondii-ΔHXGPRT to serve as controls.
(§2) Supplementary file pntd.0000794.s002.tif: Figure S2 Obtaining an EC50 value for T. gondii growth. Fluorescent T. gondii parasites are seeded into 96-well plates and spiked with test compound. Fluorescence is measured daily with a SpectraMax M22/M2e (Molecular Devices) plate reader for 6–7 days. The fluorescence readings on a day during the exponential phase of the growth curve, for example day 4 in A, are used to calculated percent growth inhibition. These values are fitted using the 4 parameter model y = D+(A–D)/(1+(x/C)^B) where D is the minimum value, A is the maximum value, C is the EC50 and B is the Hill coefficient, using the SoftMax Pro v5 software, as illustrated in B. The absolute EC50 is recorded at the x intercept where y = 50. (0.33 MB TIF) Click here for additional data file.

T. gondii-ΔHXGPRT = assay: Fluorescent T. gondii growth assay, ΔHXGPRT strain; type: cell-based; conditions: Toxoplasma gondii, read-out: T. gondii model EC50 ΔHXGPRT, T. gondii-ΔHXGPRT
From the text: as §1, §2

wild-type T. gondii = assay: Fluorescent T. gondii growth assay, wild-type strain; type: cell-based, Toxoplasma gondii; conditions: wild-type T. gondii, no added xanthine, read-out: T. gondii model EC50 WT
From the text: as §1, §2

CpIMPDH [2] = biological target: T1, CpIMPDH (Cryptosporidium parvum, UniProt Q8T6T2); assay: CpIMPDH enzyme inhibition (without or with BSA); type: biochemical; conditions: compound not previously described
T1 sequence (Q8T6T2 whole entry): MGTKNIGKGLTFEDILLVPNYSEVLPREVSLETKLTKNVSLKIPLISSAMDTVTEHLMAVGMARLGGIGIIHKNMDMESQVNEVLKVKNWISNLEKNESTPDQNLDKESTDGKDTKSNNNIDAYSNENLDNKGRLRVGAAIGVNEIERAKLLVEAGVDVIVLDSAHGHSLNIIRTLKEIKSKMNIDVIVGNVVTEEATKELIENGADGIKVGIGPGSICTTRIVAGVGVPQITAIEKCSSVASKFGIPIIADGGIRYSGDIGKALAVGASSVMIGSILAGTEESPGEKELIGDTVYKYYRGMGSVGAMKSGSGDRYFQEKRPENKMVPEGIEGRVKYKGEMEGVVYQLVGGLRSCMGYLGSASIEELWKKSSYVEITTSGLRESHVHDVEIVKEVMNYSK
Experimental: We wondered if some compounds might be binding nonspecifically to other proteins. To test this hypothesis, CpIMPDH inhibition was also evaluated in the presence of BSA [22]. […] Selectivity in the T. gondii model also correlates well with the potency of enzyme inhibition in the presence of BSA (Figure 7C; r = −0.92, p<0.0001). These observations indicate that the IC50 value in the presence of BSA is a useful proxy for antiparasitic activity modelled by T. gondii-CpIMPDH proliferation.

HCT-8 cells = assay: Fluorescent HCT-8 host cell growth assay; type: cell-based, human; conditions: for activity at 25 µM: Homo sapiens, HCT-8, compound at 25 μM, relative to DMSO alone
Experimental: HCT-8 cells were transfected with plasmid pmaxGFP (Amaxa) using Lipofectamine (Invitrogen). Fluorescent lines were then selected and cloned using cell sorting. Confluent monolayers of pmaxGFP expressing cells were harvested from T75 flasks and passed through a 40 µm cell strainer. Cells were seeded at 4000 cells per well into black, optical quality, thin bottom, 96-well plates. All test compounds were diluted in DMSO as described. The fluorescence was read daily with a SpectraMax M22/M2e (Molecular Devices) plate reader (Ex 485, Em 530) for 6–7 days. Percent inhibition was calculated on a day within the exponential phase of growth.

C. parvum [3] = conditions: several previous studies; read-out: reported EC50 values for C. parvum growth; cited from earlier work
CpIMPDH [4] = biological target: T1, CpIMPDH; conditions: read-out: CpIMPDH Inhibition IC50 + BSA; cited from earlier work

SMILES	EC50 (C. parvum [1]) [µM]	selectivity for the T. gondii-CpIMPDH parasite over wild-type T. gondii (T. gondii-CpIMPDH) [fold]	Selectivity = EC50(T. gondii-wild-type)/EC50(T. gondii-CpIMPDH) (T. gondii-CpIMPDH)	EC50 (T. gondii-CpIMPDH) [µM]	EC50 (T. gondii-ΔHXGPRT) [µM]	EC50 (wild-type T. gondii; Toxoplasma gondii) [µM]	IC50 (CpIMPDH [2]; in the presence of BSA) [µM]	IC50 (CpIMPDH [2]; without BSA) [µM]	activity at 25 µM (HCT-8 cells) [%]	mean parasite area (C. parvum [1]; relative to DMSO alone)	parasites observed relative to the no drug control (C. parvum [1]; very high concentrations of paromomycin) [%]	EC50 (C. parvum [3]) [µM]	effect on host cell (HCT-8) growth (HCT-8 cells; in words)	EC50 (wild-type T. gondii) [µM]	inhibition of HCT-8 cell growth (HCT-8 cells; at 12.5 µM and 25 µM)	IC50 (CpIMPDH [4]) [µM]
CC(Oc1cccc2ncccc12)c1cn(-c2ccc(Cl)cc2)nn1 (stereo not drawn) [Compound A99]	12 to 25	≥ 17	> 17	< 0.2	3.4	4.7	0.076 ± 0.009	0.031 ± 0.001	58 ± 8	–	–	–	–	–	–	–
NC[C@@H]1O[C@H](O[C@H]2[C@@H](O)[C@H](O[C@@H]3[C@@H](O)[C@H](N)C[C@H](N)[C@H]3O[C@H]3O[C@H](CO)[C@@H](O)[C@H](O)[C@H]3N)O[C@@H]2CO)[C@H](N)[C@@H](O)[C@@H]1O [paromomycin, reference compound]	97	–	–	–	–	–	–	–	–	significantly reduce the mean parasite area in a dose responsive manner	~30	65 to 130	negligible effects on the growth of these cells	–	–	–
CC(Oc1cccc2c1ccc[n+]2[O-])c1cn(-c2ccc(Cl)cc2)nn1 (stereo not drawn) [Compound A102]	12 to 25	≥ 36	76	0.3 ± 0.1	20 ± 5	23 ± 3	–	–	62	–	–	–	–	≥ 20	inhibit HCT-8 cell growth significantly	0.06 ± 0.02
